This note sets out measurements from ChEMBL document CHEMBL4814026, “Discovery of novel reversible monoacylglycerol lipase inhibitors via docking-based virtual screening” (Bioorg Med Chem Lett, 2021).

The term IC50 denotes the point on the concentration scale where inhibition reaches its midpoint. By Kd is commonly meant the concentration at which binding is half-saturated. Higher therefore signals weaker binding.

The target of test [1] is T1, Monoglyceride lipase (Homo sapiens, UniProt Q99685).
T1 sequence (Q99685 whole entry): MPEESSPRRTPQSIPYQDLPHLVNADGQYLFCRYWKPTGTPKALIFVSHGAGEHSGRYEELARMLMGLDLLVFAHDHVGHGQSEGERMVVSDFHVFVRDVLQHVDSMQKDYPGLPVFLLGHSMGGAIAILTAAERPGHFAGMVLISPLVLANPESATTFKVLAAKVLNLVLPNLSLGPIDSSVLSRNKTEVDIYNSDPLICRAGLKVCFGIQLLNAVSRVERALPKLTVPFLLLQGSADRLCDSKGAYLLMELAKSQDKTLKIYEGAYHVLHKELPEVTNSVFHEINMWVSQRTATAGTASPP
The test can be described thus: Inhibition of MAGL (unknown origin).

For test [2], the target named is T2, Monoglyceride lipase (Rattus norvegicus, UniProt Q8R431).
T2 sequence (Q8R431 whole entry): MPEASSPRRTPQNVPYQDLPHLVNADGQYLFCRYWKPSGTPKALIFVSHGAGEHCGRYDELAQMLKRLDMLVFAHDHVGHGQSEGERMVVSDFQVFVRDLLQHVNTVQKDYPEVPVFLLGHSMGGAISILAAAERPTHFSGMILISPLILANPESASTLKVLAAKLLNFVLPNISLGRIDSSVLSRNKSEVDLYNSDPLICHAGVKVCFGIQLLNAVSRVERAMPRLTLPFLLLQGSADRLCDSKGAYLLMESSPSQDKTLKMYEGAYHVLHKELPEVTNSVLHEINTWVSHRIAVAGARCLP
The test can be described thus: Inhibition of recombinant rat MAGL by LC-MS analysis.

Test [3] addresses T1, Monoglyceride lipase. The test can be described thus: Binding affinity to MAGL (unknown origin) by SPR analysis.
Test [4] has as its target T3, Monoglyceride lipase (Homo sapiens) (UniProt Q99685).
T3 sequence (whole entry): T1 sequence (Q99685 whole entry)
The test can be described thus: Reversible inhibition of MAGL (unknown origin).

The target of test [5] is T4, Monoglyceride lipase (Mus musculus) (UniProt O35678).
T4 sequence (whole entry): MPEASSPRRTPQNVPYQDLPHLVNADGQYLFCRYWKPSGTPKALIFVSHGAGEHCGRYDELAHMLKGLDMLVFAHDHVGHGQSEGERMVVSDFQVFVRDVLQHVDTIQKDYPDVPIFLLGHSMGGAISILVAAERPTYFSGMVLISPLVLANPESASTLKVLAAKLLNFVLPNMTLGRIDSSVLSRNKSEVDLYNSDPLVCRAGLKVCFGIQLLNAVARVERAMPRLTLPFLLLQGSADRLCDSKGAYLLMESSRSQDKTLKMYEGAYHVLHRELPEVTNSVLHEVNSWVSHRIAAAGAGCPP
The test can be described thus: Inhibition of MAGL in mouse RAW264.7 cells assessed as increase in 2-AG level at 30 uM. It counts as cell-based.

The test system of test [6] is RAW264.7. The test can be described thus: Antiinflammatory activity in mouse RAW264.7 cells assessed as reduction in LPS-induced IL-6 mRNA expression measured after 24 hrs by RT-PCR analysis. It counts as functional, cell-based. The following applies: dose 20-40 µM.
Test [7] has as its system RAW264.7. The test can be described thus: Antiinflammatory activity in mouse RAW264.7 cells assessed as reduction in LPS-induced IL-1beta mRNA expression measured after 24 hrs by RT-PCR analysis. It counts as functional, cell-based. The following applies: dose 20-40 µM.
In test [8] the test system is RAW264.7. As to the kind of experiment: Antiinflammatory activity in mouse RAW264.7 cells assessed as reduction in LPS-induced CCL-2 mRNA expression measured after 24 hrs by RT-PCR analysis. The following applies: dose 20-40 µM. Type of test: functional, cell-based.
For test [9], the target named is T3, Monoglyceride lipase (Homo sapiens). The test can be described thus: Inhibition of MAGL (unknown origin) in presence of DTT.

Calls of active or inactive are those of the source. No cut-off for these calls is given here. A value given as a limit tells only on which side of the number the result lay.

In the case of `O=C(c1ccc2nc(N3CCCCC3)sc2c1)N1CCN(c2ccccn2)CC1`, on Monoglyceride lipase [1], the IC50 was > 33300 nM.
`COc1cccc(N2CCN(C(=O)c3ccc4nc(N5CCC(C)CC5)sc4c3)CC2)c1` yielded a 50% inhibitory concentration (IC50) against Monoglyceride lipase [1] of 6580 nM.
As to `O=C(C1CCCN(c2nc3ncccc3s2)C1)N1CCN(Cc2ccc3c(c2)OCO3)CC1` (configuration not stated), the concentration for half-maximal inhibition (IC50) against Monoglyceride lipase [1] was > 33300 nM.
`Cc1ccc(Cl)cc1N1CCN(C(=O)c2ccc3nc(N4CCC(C)CC4)sc3c2)CC1` displayed a half-inhibitory concentration (IC50) on Monoglyceride lipase [1] of 5800 nM.
In the case of `COc1cc(N2CCN(C(=O)c3ccc4nc(N5CCC(C)CC5)sc4c3)CC2)cc(OC)c1OC`, at Monoglyceride lipase [1], the concentration for half-maximal inhibition (IC50) is > 33300 nM.
Consider `COC(=O)[C@]1(C)CC[C@]2(C)CC[C@]3(C)C4=CC=C5C(=CC(=O)C(O)=C5C)[C@]4(C)CC[C@@]3(C)[C@@H]2C1` [PRISTIMERIN], for which the IC50 at Monoglyceride lipase [2] amounted to 93 nM.
`COc1ccc(N2CCN(C(=O)c3ccc4nc(N5CCC(C)CC5)sc4c3)CC2)cc1` had a half-maximal inhibitory concentration (IC50) at Monoglyceride lipase [1] of 2840 nM. The molecule further showed a Kd on Monoglyceride lipase [3] of 710 nM. In addition, the inhibition entry in test [4], in test [5] and in test [9] was “Active” throughout. For the same molecule, the Activity result in the test on RAW264.7 [6], with RAW264.7 [7] and in the test with RAW264.7 [8] was “Dose-Dependent Effect” throughout.
For `O=C(C1CCN(c2nc3ncccc3s2)CC1)N1CCN(Cc2ccc3c(c2)OCO3)CC1`, the 50% inhibitory concentration (IC50) against Monoglyceride lipase [1] was > 33300 nM.
For the molecule `CC(C)=CCC[C@@H](C)[C@@H]1CC[C@]2(C)C3=C(CC[C@@]12C)[C@@]1(C)CC[C@H](O)C(C)(C)[C@@H]1CC3` [EUPHOL], the IC50 on Monoglyceride lipase [2] worked out at 315 nM.
Turning to `CC1CCN(c2nc3ccc(C(=O)N4CCN(Cc5ccccc5)CC4)cc3s2)CC1`, the IC50 at Monoglyceride lipase [1] came out at 2870 nM.
